Series [1] relates to fibroblasts exhibiting the NARP mutation. In kind it is cell-based. An excerpt:
The aim pursued here was to refine and to simplify the structure of these substrates while at the same time conserving their biological activity in order to develop a synthetic process that can be readily adapted to the industrial phase.

Series [2] has as its system microvessel growth (chick aortic ring). The series can be described thus: Vascular growth assay on chick embryos (chick aortic ring assay). It is filed as cell-based. From the text: The ongoing research will make it possible to specify its effectiveness, compared with thalidomide alone, in blocking tumor development.
Series [3] in a line: Radioactivity in mice carrying B16 melanoma after IV injection of iodine 125-labeled molecule B. In kind it is in vivo. Also on record: Radioactivity measured: unit not given here. Conditions: for Radioactivity measured: 10 μCi/animal.
Another series deals with B16 melanoma cells. The series can be described thus: Toxicity / cytotoxicity on B16 melanoma cells. In kind it is cell-based. The protocol: The cytotoxicity of this molecule was tested on B16 melanoma cells; no toxicity could be measured up to concentrations of greater than 100 μM.
A short description of the next series: Water-solubility. It is filed as physicochemical. An excerpt: As has been seen, however, the growth of a cancerous tumor is closely linked to its rate of vascularization and therefore to the phenomenon of angiogenesis that accompanies it. These observations had the scientific community to develop substrates, as has been seen, capable of inhibiting angiogenesis and therefore of blocking, by this means, the development of tumors. It is in fact now commonly accepted that membrane proteins carried by the angiogenic cells, and called integrins, participate actively in the process of proliferation of these cells. More particularly, αVβ3 integrins recognize a specific peptide sequence, the RGD (arginine-glycine-aspartic acid) sequence. The grafting of this unit onto the proposed vector should therefore provide it with an ability to specifically target angiogenic sites and therefore, ultimately, tumor sites. The addition, to this same vector, of an antimitotic agent should allow the selective destruction of the cancerous cells. In this perspective, molecule B was initially prepared to verify the innocuousness of the vector and to determine its specificity. In order to give the targeting agent a greater degree of freedom, said targeting agent was grafted onto the central lysine by means of a […] amino acid, serine. The molecule is water-soluble and is amphiphilic in nature. [drawing 11]

For another series, the system named is fibroblasts. Put plainly: Toxicity on cell cultures of fibroblasts. In kind it is cell-based.
The nature of series [4]: Radioactivity in organs of mice carrying B16 melanomas after IP injection of molecule A. It is filed as in vivo. Further details: Radioactivity measured: unit not given here. Conditions: for Radioactivity measured: 10 μCi/animal.

As to `CC(C)(C)/[N+]([O-])=C/c1ccc(C(=O)NCCCCC(NC(=O)C(O)[C@H](O)[C@H](O[C@@H]2OC(CO)[C@H](O)C(O)C2O)C(O)CO)C(=O)NCCC(F)(F)C(F)(F)C(F)(F)C(F)(F)C(F)(F)C(F)(F)C(F)(F)C(F)(F)F)cc1` (stereo partly drawn) [molecule E], the Toxicity result in series [1] is “No toxicity was measured”. Moreover, in series [1] (NARP fibroblasts, in vitro), the Cell protection entry was “exhibits a capacity for cell protection” and the “Effect on the apoptotic process” value is “inhibits the apoptotic process”.

In the case of `O=C1CCC(N2C(=O)c3ccccc3C2=O)C(=O)N1` (stereo not drawn) [thalidomide, reference compound], in series [2] (at such concentrations (20 μM, 200 μM)), the Inhibiting microvessel growth result was “ineffective”.

As for `COC(=O)C(CCCCNC(=O)C(Cc1ccc(O)cc1)NC(=O)C(C)(C)C(C)(C)C(F)(F)C(F)(F)C(F)(F)C(F)(F)C(F)(F)C(F)(F)C(F)(F)C(F)(F)F)NCC(CO)NC(=O)C(CC(=O)O)NC(=O)CNC(=O)C(N)CCCNC(=N)N` (stereo not drawn) [molecule B], the Radioactivity measured is on record as 5.8 ± 0.8 in series [3] (Blood, 15 min after IV injection); 4.5 ± 0.8 in series [3] (Blood, 30 min after IV injection); 3.6 ± 0.7 in series [3] (Blood, 1 h after IV injection); 8.9 ± 1.6 in series [3] (Kidney, 15 min after IV injection); 5.9 ± 0.6 in series [3] (Kidney, 30 min after IV injection); 3.5 ± 0.6 in series [3] (Kidney, 1 h after IV injection). Also, the Radioactivity measured in series [3] (Liver, 15 min after IV injection) was 4.8 ± 0.8; in series [3] (Liver, 30 min after IV injection) it was 2.2 ± 0.6; in series [3] (Liver, 1 h after IV injection), 2.4 ± 0.7; in series [3] (Thyroid, 15 min after IV injection), 5.9 ± 1.2; in series [3] (Thyroid, 30 min after IV injection), 10.2 ± 2.5; in series [3] (Thyroid, 1 h after IV injection), 15.3 ± 5.3. For the same compound, the Radioactivity measured in series [3] (Tumor (center), 15 min after IV injection) was found to be 1.7 ± 0.6; in series [3] (Tumor (center), 30 min after IV injection), 1.8 ± 0.3; in series [3] (Tumor (center), 1 h after IV injection) it was 2.4 ± 0.4; in series [3] (Tumor (stroma), 15 min after IV injection) it was 3.9 ± 0.8; in series [3] (Tumor (stroma), 30 min after IV injection), 3.8 ± 0.9; in series [3] (Tumor (stroma), 1 h after IV injection), 4.2 ± 0.6. Besides, the Localisation in vivo result in series [3] (iodine 125-labeled, injected intravenously, mice carrying a melanoma) is “accumulates in the stroma of the tumor”. Moreover, the “Cytotoxicity: concentration up to which no toxicity could be measured” value with B16 melanoma cells (B16 melanoma cells) was “greater than 100 μM”. Besides, the Water-solubility result in the series “Water-solubility” is “water-soluble”.

For the compound `O=C1CCC(N2C(=O)c3ccc(C(=O)NC(Cc4ccc(O)cc4)C(=O)NCCCCC(NC(=O)C(O)[C@H](O)[C@H](O[C@@H]4OC(CO)[C@H](O)[C@H](O)C4O)C(O)CO)C(=O)NCCC(F)(F)C(F)(F)C(F)(F)C(F)(F)C(F)(F)C(F)(F)C(F)(F)C(F)(F)F)cc3C2=O)C(=O)N1` (stereo partly drawn) [molecule A], the Inhibiting microvessel growth entry in series [2] (at 20 μM) is listed as “effective”; in series [2] (at 200 μM) it was “completely blocks the development”. For the same compound, the “Toxicity on cell cultures” value in the series with fibroblasts and in the series on B16 melanoma cells (B16 melanomas) was “no totally unacceptable toxicity” throughout. Besides, the Radioactivity measured in series [4] (Blood, 15 min after IP injection) was found to be 5.9 ± 1.2; in series [4] (Blood, 1 h after IP injection), 3.4 ± 0.7; in series [4] (Kidney, 15 min after IP injection) it was 4.6 ± 0.5; in series [4] (Kidney, 1 h after IP injection), 4.0 ± 0.9; in series [4] (Liver, 15 min after IP injection), 4.5 ± 1.1; in series [4] (Liver, 1 h after IP injection), 2.2 ± 0.8. The Radioactivity measured was determined as 5.6 ± 0.8 in series [4] (Thyroid, 15 min after IP injection); 9.8 ± 1.7 in series [4] (Thyroid, 1 h after IP injection); 2.6 ± 0.5 in series [4] (Tumor (center), 15 min after IP injection); 2.7 ± 0.5 in series [4] (Tumor (center), 1 h after IP injection); 4.5 ± 0.7 in series [4] (Tumor (stroma), 15 min after IP injection); 5.4 ± 0.2 in series [4] (Tumor (stroma), 1 h after IP injection). In addition, the Localisation in vivo result in series [4] (mice carrying B16 melanomas, IP injection) was “concentrated in the stroma of the tumor”.
